Article PMC5126668 (PeerJ, 2016)

Target: T1, CYP2C19 (Homo sapiens, UniProt P33261)
T1 construct: was investigated in HLMs; tissue iPhase Pharmaceutical Services (Beijing, China) Lot # 7MMC011; host or cells: pooled human liver microsomes
Experiment: Inhibition of CYP activities by GA in HLMs (mephenytoin)
Assay type: biochemical
Procedure: The samples containing HLMs were prepared in an ice bath, and three replicates of each dose were tested.
The reaction system consisted of 0.5 g/L HLMs, 1 mM NADPH, 25 µM phenacetin (CYP1A2 substrate), 25 µM tolbutamide (CYP2C9 substrate), 25 µM mephenytoin (CYP2C19 substrate), 10 µM dextromethorphan (CYP2D6 substrate) and 10 µM midazolam (CYP3A4 substrate). After incubation at 37 °C for 30 min, 200 µL of methanol containing 100 µg/L propranolol hydrochloride was added to terminate the reaction. The samples were then treated, and the corresponding substrate metabolites of CYP isoforms were detected according to a previously described method ([Shen et al., 2013]).

T1 sequence (P33261 whole entry): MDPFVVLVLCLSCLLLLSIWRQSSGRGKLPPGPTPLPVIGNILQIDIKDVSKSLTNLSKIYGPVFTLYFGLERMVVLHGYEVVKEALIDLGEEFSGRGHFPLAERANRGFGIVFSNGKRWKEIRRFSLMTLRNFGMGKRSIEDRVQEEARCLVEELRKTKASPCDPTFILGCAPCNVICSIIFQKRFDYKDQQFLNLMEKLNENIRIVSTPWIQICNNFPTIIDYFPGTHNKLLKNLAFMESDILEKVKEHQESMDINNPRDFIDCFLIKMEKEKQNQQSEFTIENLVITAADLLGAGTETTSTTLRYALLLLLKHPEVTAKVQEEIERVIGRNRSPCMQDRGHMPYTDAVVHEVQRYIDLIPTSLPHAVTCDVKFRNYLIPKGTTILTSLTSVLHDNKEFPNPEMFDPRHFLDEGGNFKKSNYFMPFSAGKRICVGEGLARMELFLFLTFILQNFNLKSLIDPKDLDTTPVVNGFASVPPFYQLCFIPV

SMILES: CC1(C)[C@@H](O)CC[C@]2(C)[C@H]3C(=O)C=C4[C@@H]5C[C@@](C)(C(=O)O)CC[C@]5(C)CC[C@@]4(C)[C@]3(C)CC[C@@H]12 [GA, Glycyrrhetinic acid]
- IC50 (HLMs, 30 min pre-incubation with NADPH, mephenytoin 25 µM): 175.2 ± 1.26 µM
- activity at 30 min, 0.1 µM (human, human liver microsomes, probe mephenytoin (25 µM), CYP2C19-30min, GA 0.1000, vs control, read-out: Relative activity (%)): 117%
- activity at 30 min, 1 µM (human, human liver microsomes, probe mephenytoin (25 µM), CYP2C19-30min, GA 1.0000, vs control, read-out: Relative activity (%)): 105%
- activity at 30 min, 6.25 µM (human, human liver microsomes, probe mephenytoin (25 µM), CYP2C19-30min, GA 6.2500, vs control, read-out: Relative activity (%)): 88%
- activity at 30 min, 31.25 µM (human, human liver microsomes, probe mephenytoin (25 µM), CYP2C19-30min, GA 31.2500, vs control, read-out: Relative activity (%)): 80%
- activity at 30 min, 100 µM (human, human liver microsomes, probe mephenytoin (25 µM), CYP2C19-30min, GA 100.0000, vs control, read-out: Relative activity (%)): 72.5%
- activity at 30 min, 156.25 µM (human, human liver microsomes, probe mephenytoin (25 µM), CYP2C19-30min, GA 156.2500, vs control, read-out: Relative activity (%)): 57.9%
- activity at 30 min, 312.5 µM (human, human liver microsomes, probe mephenytoin (25 µM), CYP2C19-30min, GA 312.5000, vs control, read-out: Relative activity (%)): 0%
- activity at 30 min, […] (human, human liver microsomes, probe mephenytoin (25 µM), read-out: Relative activity (%)): 36.8%
